# Test results published in ChEMBL document CHEMBL1157539, “Thousands of chemical starting points for antimalarial lead identification” (Nature, 2010).
# System: Plasmodium falciparum
# Assay: GSK_TCMDC: Inhibition of Plasmodium falciparum 3D7 in whole erythrocytes, using parasite LDH activity as an index of growth.
# Assay type: functional, organism-based
# Details: Plasmodium falciparum, 3D7
row,SMILES,XC50 [nM]
1,c1ccc(-c2nc(NCCCn3ccnc3)cc(-c3ccncc3)n2)cc1,167
2,O=C(Cn1c(CCc2cccc(F)c2F)nc(=O)c2cccnc21)N(Cc1ccc(-c2ccc(C(F)(F)F)cc2)cc1)C1CCN(C2CCSCC2)CC1,230
3,CCN(CC)CCN(Cc1ccc(-c2ccc(C(F)(F)F)cc2)cc1)C(=O)Cn1c(CCc2c(F)cccc2F)nc(=O)c2ccccc21,637
4,CC(C)(C)NCCN(Cc1ccc(-c2ccc(C(F)(F)F)cc2)cc1)C(=O)Cn1c(SCc2ccc(F)cc2)nc(=O)c2c1CCC2,860
5,N=C(N)Nc1ccc(Cc2ccc(NC(=N)N)cc2)cc1,255
6,COc1ccc(Nc2nccc(NCCNC(=O)Nc3ccccc3F)n2)cc1,1320
7,COc1ccc(-c2cnc(NCc3ccccc3)nc2)cc1CNC1CCN(C)CC1,782
8,C=CCN1C(=O)C(=Cc2cc(Br)ccc2O)SC1=Nc1ccccc1,900
9,C#CCCC(=O)Nc1cccc(-c2cccc(-c3nc4cc(C(F)(F)F)ccc4[nH]3)c2)c1,805
10,CCCC(C)Nc1nc(C)cc(NCCC(=O)Nc2ccccc2)n1 (stereo unspecified),959
11,O=C(Cc1c[nH]cn1)Nc1ccc(-c2cccc(-c3nc4cc(F)ccc4[nH]3)c2)cc1,797
12,O=C(NC1CCCCC1)C1CCCN(C(=O)c2ccc(O)c(-c3ccc(Cl)c(Cl)c3)c2)C1 (stereo unspecified),903
13,CC(C)c1cc2c(ccc3nc(N)nc(N)c32)o1,85.7
14,Cc1cc(NC(=O)NC(=N)N)ccc1Cl,698
15,COc1cc(-c2cc(-c3ccc(S(C)(=O)=O)cc3)cnc2N)ccc1O,101
16,Cc1[nH]c(C)c(-c2csc3ccccc23)c(=O)c1Cl,1020
17,COc1c(C2CCN(CCCCNC(=O)c3ccc(-c4ccc(NC(=O)C(F)(F)F)cc4)cc3)CC2)ccc2c1CCCC2,1000
18,CCN(CCCN1CCCCC1)c1cc(C)nc(Nc2cccc3c2CCCC3)n1,1030
19,Cc1c(C)n(C2CCCCC2)c2ncnc(OC3CCN(CC(=O)N4CCCC4)CC3)c12,1450
20,Cc1cccc2nc(-c3cccc(-c4cccc(CNCCN5CCNCC5)c4)c3)[nH]c12,970
21,COC(=O)c1cccc(CNCc2ccc(-c3ccc(-c4nc5cccc(C)c5[nH]4)cc3)cc2)c1,283
22,C#C[C@H]1O[C@@H](n2cnc3c(Nc4cc(Br)cc(C(F)(F)F)c4)ncnc32)[C@H](O)[C@@H]1O,1030
23,CC(=O)Nc1ccc(S(=O)(=O)Nc2ccc(Nc3nc(C)cc(N(C)C)n3)cc2)cc1,1160
24,O=C(Nc1ccc2oc(-c3ccc(Br)cc3)nc2c1)c1ccc([N+](=O)[O-])o1,968

row,SMILES,XC50 [nM]
1,NC1CCN(CCc2ccc(NS(=O)(=O)c3cccc4ccccc34)cc2)CC1,1700
2,Cc1cccc2nc(-c3ccc(-c4cccc(CN5CCCC5CN)c4)cc3)[nH]c12 (stereo unspecified),914
3,O=c1cc(NCCCNCc2ccc(C(F)(F)F)cc2F)[nH]c2ccccc12,956
4,Cc1ccc(C)c(Sc2ccc(NC(=O)CN3CCN(C(=O)c4ccco4)CC3)cc2)c1,716
5,CC(=O)Nc1nc(C(=O)Nc2ccc(-c3cccc(-c4nc5cccc(C)c5[nH]4)c3)cc2)cs1,232
6,CCN(CC)CCCCNc1cc(-c2[nH]c(-c3c(Cl)cccc3Cl)nc2-c2ccc3cc(OC)ccc3c2)ccn1,958
7,COc1cccc(NC(=O)CSc2nc(-c3ccccc3Cl)ns2)c1,814
8,O=C(Cc1cccc(O)c1)Nc1ccc(-c2cccc(-c3nc4cc(C(F)(F)F)ccc4[nH]3)c2)cc1,983
9,COc1ccc(CNCc2ccsc2)cc1-c1ccc(S(=O)(=O)NCCN2CCCC2)s1,766
10,O=C(/C=C/c1ccc(Cl)c(Cl)c1)N1CCN(C(=O)Nc2ccc(F)c(Cl)c2)CC1,724
11,O=C(NC1CCN(Cc2ccccc2)CC1)c1ccc(-c2nc3cc4ccccc4cc3[nH]2)s1,601
12,COCCNCc1cccc(-c2cc3nccc(Nc4ccc(Oc5ccccc5)cc4)c3cc2Cl)c1,1380
13,Cc1ccc2cc(NCCCCCCCCON3C(N)=NC(N)=NC34CCCCC4)ccc2n1,163
14,COc1cc2nc(N3CCC(CNC(=O)c4ccc(-c5cccc(C#N)c5)cc4)CC3)nc(N)c2cc1OC,139
15,CNCCNCc1ccc(-c2ccc(-c3nc4cccc(C)c4[nH]3)cc2)cc1,670
16,CS(=O)(=O)CCNCc1cccc(-c2ccc3c(Nc4cc(O)c(Cl)cc4F)ccnc3c2)c1,254
17,CS(=O)(=O)c1ccc(CCNCc2ccc(-c3cccc(-c4nc5ccccc5[nH]4)c3)cc2)cc1,194
18,COc1ccc2nccc([C@@H](O)CN3CCC(NC(=O)c4cccc(C(=O)c5ccccc5)c4)CC3)c2c1,685
19,Cc1cc([N+](=O)[O-])ccc1N1CCN(CCCCNC(=O)c2ccc(NC(=O)c3ccc(Cl)cc3)cc2)CC1,887
20,CC(C)c1ccc(NC(=O)c2ccc(C(=O)NC3CCN(CC4CCCCC4)CC3)cc2)cc1,645
21,CCN(CC)/C(=N/C(=N)Nc1ccc(Cl)cc1)NCCCCCCCCN/C(=N\C(=N)Nc1ccc(Cl)cc1)N(CC)CC,403
22,O=C(Nc1cccc(-c2ccc(CN3CCCC3)cc2)c1)c1cccc(F)c1,783
23,CS(=O)(=O)Cc1cccc(Nc2ncc(Cl)c(Nc3cccnc3C(N)=O)n2)c1,168
24,O=c1cc(NCCCNCc2ccc(Cl)c(Cl)c2)[nH]c2cc(F)cc(F)c12,675

row,SMILES,XC50 [nM]
1,Cn1cnc(CCNC(=O)c2ccc(-c3cccc(-c4nc5ccccc5[nH]4)c3)cc2)c1,1100
2,CC(C)(C)c1ccc(NC(=O)c2ccc(CN3CCCN(Cc4ccsc4)CC3)cc2)cc1,716
3,O=C(Nc1ccc(-c2csc3nccn23)cc1)c1ccc(Cl)cc1,584
4,O=C(C=Cc1ccc(Cl)c(Cl)c1)NCCCCCN1CCCC(CCCNC(=O)c2cccs2)C1 (stereo unspecified),1300
5,CCC1(C)N=C(N)N=C(N)N1c1ccccc1 (stereo unspecified),792
6,CC(C)CCNCc1ccc(OCc2ccccc2COc2ccc(CNCCC(C)C)cc2I)c(I)c1,425
7,O=C(Nc1ccc(-c2cccc(-c3nc4cc(C(F)(F)F)ccc4[nH]3)c2)cc1)c1ccc(=O)[nH]n1,1070
8,Cc1ccc(-c2cnc(N)c3cc(-c4ccnc(N)n4)ccc23)cc1,808
9,CN(C)CC(O)COc1ccc(Nc2ncc([N+](=O)[O-])c(Nc3ccccc3O)n2)cc1 (stereo unspecified),762
10,COc1ccc(NC(=O)c2ccc(-c3cc(NC(=O)c4ccnc(N5CCCC5)c4)ccc3C)s2)cc1N1CCN(C)CC1,245
11,O=C(Nc1cccc(CN2CCCN(Cc3cccc(O)c3)CC2)c1)c1ccc2ccccc2c1,786
12,ON=C1CCc2cc(-c3[nH]c(-c4cccc(OCCNCc5ccc(F)cc5)c4)nc3-c3ccncc3)ccc21,890
13,Cc1cc(CNCC2CCC(CNCCCc3ccccc3)CC2)ccc1O (stereo unspecified),871
14,COc1ccc(CNCc2cccc(-c3cccc(-c4nc5cc(C(F)(F)F)ccc5[nH]4)c3)c2)cc1,196
15,COc1ccc2ncc(F)c([C@H](O)CN3CCC(NCc4ccc5c(c4)NC(=O)CS5)CC3)c2c1,185
16,Cn1cncc1CCN(Cc1ccc(-c2ccc(C(F)(F)F)cc2)cc1)C(=O)Cn1c(SCc2cccc(F)c2F)cc(=O)c2ccccc21,990
17,CCOC(=O)c1cn(CC)c2cc(N(C)CCc3ccc(OC)c(OC)c3)c(F)cc2c1=O,425
18,CNC(=O)/C=C/c1cc(NC(=O)Nc2cc(C)nc3c(F)cccc23)ccc1OC,908
19,Cc1ccc(C(CC(=O)Nc2nccs2)c2ccc(OC(C)C)cc2)cc1 (stereo unspecified),479
20,Cc1ccc2[nH]c(C)cc(=NN=Cc3ccccc3Cl)c2c1,752
21,O=C(CCC1CCCCC1)NCCNc1cccc2ccccc12,831
22,CN(c1ccc(NC(=O)c2cccc(F)c2)cc1)C1CCCN(Cc2cccc(O)c2)C1 (stereo unspecified),1300
23,CC(C)Nc1cc(C(=O)N[C@@H](Cc2ccccc2)[C@H](O)CNC2CCCCC2)cc(N2CCCCS2(=O)=O)c1,103
24,CCOc1ccccc1C1CCN(CCCCNC(=O)c2ccc(NC(=O)c3ccc(Cl)cc3)cc2)CC1,846

row,SMILES,XC50 [nM]
1,CCCCCCCCCn1c(NCc2cc(Cl)ccc2O)nc2ccccc21,825
2,CCCN1CCN(Cc2ccc(-c3ccc(-c4nc5ccccc5[nH]4)s3)cc2)CC1,611
3,CCCCCCCCn1c2c(c(=N)c3c1CCC3)CCCC2,109
4,O=C(Nc1ccc(S(=O)(=O)N2CCCCC2)cc1)c1cc(-c2cc(Cl)ccc2O)n[nH]1,811
5,Cc1ccc(NC(=O)c2cn(-c3ccccc3)nc2-c2ccc(F)cc2)cc1[N+](=O)[O-],1000
6,Cc1cc(NCCc2ccccc2)nc(NC(=N)Nc2ccccc2Cl)n1,789
7,Cc1cccc2nc(-c3ccc(-c4cccc(NC(=O)Nc5ccsc5)c4)s3)[nH]c12,542
8,O=C(NCCCCN1CCC(c2ccc3c(c2OC(=O)c2ccc(NC(=O)c4ccc(Cl)cc4)cc2)CCCC3)CC1)c1ccc(NC(=O)c2ccc(Cl)cc2)cc1,203
9,COc1ccc2ncc(Cl)c([C@H](O)CN3CCC(NCc4cc5c(cn4)OCCO5)CC3)c2c1,116
10,CCC(C)OC(=O)C1=C(C)NC2=C(C(=O)CC(c3ccc(OC)c(OC)c3)C2)C1c1cccc(O)c1 (stereo unspecified),193
11,COc1cccc(OC)c1C(=O)N1CCC2(CC1)C(=O)N(CC(=O)NC1CCCCC1)CN2c1ccccc1,953
12,CNc1ccc(CNCc2ccc(-c3ccc(-c4nc5cc(F)ccc5[nH]4)cc3)cc2)cc1,210
13,Cc1onc(-c2ccccc2)c1C(=O)Nc1nc(-c2ccccn2)nc2ccsc12,685
14,CC(=O)Nc1ccc(OCCN(CC(F)(F)F)c2ccc(C#N)cc2C(F)(F)F)cc1,767
15,CN(C)c1ccc(C(c2ccc(N(C)C)cc2)c2cc([N+](=O)[O-])ccc2Cl)cc1,911
16,COc1cccc(C(=O)NC(C=Cc2ccccc2)c2cc(Cl)c3cccnc3c2O)c1 (stereo unspecified),859
17,CC(C)(C)c1ccc(S(=O)(=O)Nc2ccccc2Cn2nc(N3CCNCC3)ccc2=O)cc1,846
18,Cc1cc(O)c(C(C)C)cc1C1(c2cc(C(C)C)c(O)cc2C)OC(=O)c2ccccc21,871
19,Nc1c(-c2ccc(C(=O)NCCNCc3ccccc3)cc2)cnn1-c1ccc(C(F)(F)F)cc1,1160
20,O=C(Nc1ccc(Br)cc1)N(CCN1CCOCC1)CC(O)COCc1ccc(F)cc1 (stereo unspecified),1040
21,CC(C)Cc1nc(N2CCOCC2)c2nnn(Cc3ccccc3)c2n1,508
22,CN1CCC(NCc2cccc(-c3ccc(S(=O)(=O)NCCN4CCCC4)c(F)c3)c2)CC1,1010
23,Cc1ccc(C2CCN(CCCCNC(=O)c3ccc(NC(=O)c4ccc(Cl)cc4)cc3)CC2)c(OCC2CC2)c1,887
24,O=C(Cc1ccc(F)cc1)NC1CCN(c2ccnc3cc(Cl)ccc23)C1 (stereo unspecified),484
